The test is described as follows: Inhibition of human TREX1 exonuclease activity using labeled DNA oligonucleotide as substrate incubated for 30 mins and measured after 45 mins by fluorescence assay.
The term IC50 denotes the midpoint of a concentration-inhibition curve. Read a high IC50 as a need for much substance. In turn, `Cn1c(Cl)ccc(CNC(=O)[C@@H](CCC(=O)O)N2CCC(CCc3ccccc3)N3C[C@H](N)C[C@H]3C2=O)c1=O` (stereo partly drawn) gave an IC50 of less than 1 µM. Then `N[C@@H]1C[C@H]2C(=O)N([C@@H]3CCCN(C(=O)c4ccc(Cl)c(Cl)c4)C3)CCC(CCc3ccccc3)N2C1` (stereo partly drawn), with “in the range around 10 µM”; and `N[C@@H]1C[C@H]2C(=O)N([C@H](CCC(=O)O)C(=O)NCc3ccc(Cl)c(Cl)c3)CCC(COc3cnccn3)N2C1` (stereo partly drawn), with “in the range around 1 µM”; and `N[C@@H]1C[C@H]2C(=O)N([C@@H]3CCCN(S(=O)(=O)c4ccc(Cl)c(Cl)c4)C3)CCC(CCc3ccccc3)N2C1` (stereo partly drawn), with less than 1 µM. For the compound `CCOC(=O)CC[C@H](C(=O)NCc1cc(Cl)c(Cl)cc1OC)N1CCC(CCc2ccccc2)N2C[C@H](N)C[C@H]2C1=O` (stereo partly drawn), the IC50 is less than 1 µM. In the case of `N#CC[C@H](C(=O)NCc1ccc(Cl)c(Cl)c1)N1CCC(CCc2ccccc2)N2C[C@H](N)C[C@H]2C1=O` (stereo partly drawn) it was less than 1 µM; in that of `CCOC(=O)CC[C@H](C(=O)NCc1ccc(Cl)c(Cl)c1)N1CCC(CCc2ccccc2)N2C[C@H](N)C[C@H]2C1=O` (stereo partly drawn), less than 1 µM; in that of `N[C@@H]1C[C@H]2C(=O)N([C@H]3CCCN(S(=O)(=O)c4ccc(Cl)c(Cl)c4)C3)CCC(CCc3ccccc3)N2C1` (stereo partly drawn), “in the range around 1 µM”. In turn, `COC(=O)CC[C@H](C(=O)NS(=O)(=O)c1ccc(Cl)c(Cl)c1)N1CCC(CCc2ccccc2)N2C[C@H](N)C[C@H]2C1=O` (stereo partly drawn) returned an IC50 of less than 1 µM. Compound `N#CCC[C@H](C(=O)NCc1ccc(Cl)c(Cl)c1F)N1CCC(CCc2ccccc2)N2C[C@H](N)C[C@H]2C1=O` (stereo partly drawn) had an IC50 of less than 1 µM. Then `CCOC(=O)CC[C@H](C(=O)NCc1ccc(Cl)c(Cl)c1F)N1CCC(CCc2ccccc2)N2C[C@H](N)C[C@H]2C1=O` (stereo partly drawn), with less than 1 µM; and `COc1ccc(CNC(=O)[C@@H](CC(C)C)N2CCC(CCc3ccccc3)N3C[C@H](N)C[C@H]3C2=O)cc1Cl` (stereo partly drawn), with less than 1 µM; and `N[C@@H]1C[C@H]2C(=O)N([C@H](CCC(=O)O)C(=O)NCc3ccc(Cl)c(C(F)(F)F)c3)CCC(CCc3ccccc3)N2C1` (stereo partly drawn), with less than 1 µM. Take `N[C@@H]1C[C@H]2C(=O)N([C@H](CCC(=O)O)C(=O)N3CCC[C@H]3c3ccc(Cl)c(Cl)c3)CCC(CCc3ccccc3)N2C1` (stereo partly drawn): the IC50 was less than 1 µM. Then `COc1c(CNC(=O)[C@@H](CCC(=O)O)N2CCC(CCc3ccccc3)N3C[C@H](N)C[C@H]3C2=O)ccc(Cl)c1Cl` (stereo partly drawn), with less than 1 µM; and `N[C@@H]1C[C@H]2C(=O)N([C@H](CCNS(=O)(=O)C(F)(F)F)C(=O)NCc3ccc(Cl)c(Cl)c3)CCC(CCc3ccccc3)N2C1` (stereo partly drawn), with less than 1 µM; and `CC(=O)NCC[C@H](C(=O)NCc1ccc(Cl)c(Cl)c1)N1CCC(CCc2ccccc2)N2C[C@H](N)C[C@H]2C1=O` (stereo partly drawn), with less than 1 µM. Then `COc1c(CNC(=O)[C@@H](CCC#N)N2CCC(CCc3ccccc3)N3C[C@H](N)C[C@H]3C2=O)ccc(Cl)c1Cl` (stereo partly drawn), with less than 1 µM; and `CCN(CC)C(=O)COC(=O)CC[C@H](C(=O)NCc1ccc(Cl)c(Cl)c1)N1CCC(CCc2ccccc2)N2C[C@H](N)C[C@H]2C1=O` (stereo partly drawn), with less than 1 µM. On to `CCOC(=O)CC[C@H](C(=O)NCc1cc(Cl)c(Cl)cn1)N1CCC(CCc2ccccc2)N2C[C@H](N)C[C@H]2C1=O` (stereo partly drawn), for which the IC50 is less than 1 µM.

In turn, `CCOC(=O)CC[C@H](C(=O)NCc1ccc(Cl)c(Cl)c1OC)N1CCC(CCc2ccccc2)N2C[C@H](N)C[C@H]2C1=O` (stereo partly drawn) had an IC50 of less than 1 µM.

For `CCOC(=O)CC[C@H](C(=O)NCc1ccc(Cl)c(Cl)n1)N1CCC(CCc2ccccc2)N2C[C@H](N)C[C@H]2C1=O` (stereo partly drawn), the half-inhibitory concentration (IC50) is less than 1 µM.

`CCOc1c(CNC(=O)[C@@H](CCC(=O)O)N2CCC(CCc3ccccc3)N3C[C@H](N)C[C@H]3C2=O)ccc(Cl)c1Cl` (stereo partly drawn) came in with an IC50 of less than 1 µM.

Consider `CCOC(=O)CC[C@H](C(=O)N1CCOC[C@H]1c1ccc(Cl)c(Cl)c1)N1CCC(CCc2ccccc2)N2C[C@H](N)C[C@H]2C1=O` (stereo partly drawn), for which the IC50 was less than 1 µM.

Take `CCOC(=O)CC[C@H](C(=O)NCc1ccc(Cl)c(Cl)c1)N1CCC(CCc2ccccc2)N2C[C@H](NC(=O)OCC)C[C@H]2C1=O` (stereo partly drawn): the IC50 entry is “in the range around 10 µM”. Then `N[C@@H]1C[C@H]2C(=O)N([C@H](CCC(=O)NO)C(=O)NCc3ccc(Cl)c(Cl)c3)CCC(COc3cccc(F)c3)N2C1` (stereo partly drawn), with less than 1 µM; and `NC(=O)CC[C@H](C(=O)N1Cc2cc(Cl)c(Cl)cc2C1)N1CCC(CCc2ccccc2)N2C[C@H](N)C[C@H]2C1=O` (stereo partly drawn), with “in the range around 10 µM”; and `COc1ccc(CNC(=O)[C@@H](CC(C)C)N2CCC(CCc3ccccc3)N3C[C@H](N)C[C@H]3C2=O)cc1` (stereo partly drawn), with less than 1 µM. In the case of `N#CCC[C@H](C(=O)NCc1ccc(Cl)c(Cl)c1)N1CCC(COc2ccc(F)cc2)N2C[C@H](N)C[C@H]2C1=O` (stereo partly drawn) it was less than 1 µM; in that of `N#CC[C@H](C(=O)N1CCc2c(ccc(Cl)c2Cl)C1)N1CCC(CCc2ccccc2)N2C[C@H](N)C[C@H]2C1=O` (stereo partly drawn), “in the range around 1 µM”. `N[C@@H]1C[C@H]2C(=O)N([C@H]3CCCN(C(=O)c4ccc(Cl)c(Cl)c4)C3)CCC(CCc3ccccc3)N2C1` (mixture of isomers): the half-maximal inhibitory concentration (IC50) result is “in the range around 10 µM”. Then `COc1c(CNC(=O)[C@@H](CCc2nnn[nH]2)N2CCC(CCc3ccccc3)N3C[C@H](N)C[C@H]3C2=O)ccc(Cl)c1Cl` (stereo partly drawn), with less than 1 µM; and `CONC(=O)CC[C@H](C(=O)NCc1ccc(Cl)c(Cl)c1)N1CCC(CCc2ccccc2)N2C[C@H](N)C[C@H]2C1=O` (stereo partly drawn), with less than 1 µM; and `N[C@@H]1C[C@H]2C(=O)N([C@H](CCNC(=O)C3CC3)C(=O)NCc3ccc(Cl)c(Cl)c3)CCC(CCc3ccccc3)N2C1` (stereo partly drawn), with less than 1 µM. With `N[C@@H]1C[C@H]2C(=O)N([C@H](CCC(=O)NO)C(=O)NCc3ccc(Cl)c(Cl)c3)CCC(CCc3ccccc3)N2C1` (stereo partly drawn), the IC50 was less than 1 µM. In the case of `CNC(=O)CC[C@H](C(=O)NCc1ccc(Cl)c(Cl)c1)N1CCC(CCc2ccccc2)N2C[C@H](N)C[C@H]2C1=O` (stereo partly drawn), the IC50 is less than 1 µM. In the case of `N[C@@H]1C[C@H]2C(=O)N([C@H](CCC(=O)O)C(=O)NCc3cc(Cl)c(Cl)cc3F)CCC(CCc3ccccc3)N2C1` (stereo partly drawn), the IC50 was less than 1 µM. For the compound `N[C@@H]1C[C@H]2C(=O)N([C@H](CCC(=O)O)C(=O)N3CCCC[C@H]3c3ccc(Cl)c(Cl)c3)CCC(CCc3ccccc3)N2C1` (stereo partly drawn), the IC50 was less than 1 µM. `CC(C)C[C@H](C(=O)NCc1ccc(F)c(F)c1)N1CCC(CCc2ccccc2)N2C[C@H](N)C[C@H]2C1=O` (stereo partly drawn) registered an IC50 of less than 1 µM. The compound `CC(C)C[C@H](C(=O)NCc1ccc(Cl)c(F)c1)N1CCC(CCc2ccccc2)N2C[C@H](N)C[C@H]2C1=O` (stereo partly drawn) showed an IC50 of less than 1 µM. In the case of `N[C@@H]1C[C@H]2C(=O)N([C@H]3CCCN(Cc4ccc(Cl)c(Cl)c4)C3=O)CCC(CCc3ccccc3)N2C1` (stereo partly drawn) it was less than 1 µM; in that of `NC(=O)C[C@H](C(=O)NCc1ccc(Cl)c(Cl)n1)N1CCC(CCc2ccccc2)N2C[C@H](N)C[C@H]2C1=O` (stereo partly drawn), less than 1 µM. The compound `N[C@@H]1C[C@H]2C(=O)N([C@H](CCC(=O)O)C(=O)NCc3ccc(Cl)c(Cl)c3)CCC(COc3ccccc3Cl)N2C1` (stereo partly drawn) returned an IC50 of less than 1 µM.
